In one experiment the target is mutant BRAF enzyme (BRAF-V600E) (Homo sapiens (Human), UniProt P15056, V600E). Put plainly: RAF inhibition assay (TB-PMAP2K1 kit), BRAF-V600E. Type of experiment: biochemical. Conditions: FLUORESCEIN-MAP2K1 substrate, 60 min reaction.
mutant BRAF enzyme (BRAF-V600E), sequence (P15056 whole entry V600E): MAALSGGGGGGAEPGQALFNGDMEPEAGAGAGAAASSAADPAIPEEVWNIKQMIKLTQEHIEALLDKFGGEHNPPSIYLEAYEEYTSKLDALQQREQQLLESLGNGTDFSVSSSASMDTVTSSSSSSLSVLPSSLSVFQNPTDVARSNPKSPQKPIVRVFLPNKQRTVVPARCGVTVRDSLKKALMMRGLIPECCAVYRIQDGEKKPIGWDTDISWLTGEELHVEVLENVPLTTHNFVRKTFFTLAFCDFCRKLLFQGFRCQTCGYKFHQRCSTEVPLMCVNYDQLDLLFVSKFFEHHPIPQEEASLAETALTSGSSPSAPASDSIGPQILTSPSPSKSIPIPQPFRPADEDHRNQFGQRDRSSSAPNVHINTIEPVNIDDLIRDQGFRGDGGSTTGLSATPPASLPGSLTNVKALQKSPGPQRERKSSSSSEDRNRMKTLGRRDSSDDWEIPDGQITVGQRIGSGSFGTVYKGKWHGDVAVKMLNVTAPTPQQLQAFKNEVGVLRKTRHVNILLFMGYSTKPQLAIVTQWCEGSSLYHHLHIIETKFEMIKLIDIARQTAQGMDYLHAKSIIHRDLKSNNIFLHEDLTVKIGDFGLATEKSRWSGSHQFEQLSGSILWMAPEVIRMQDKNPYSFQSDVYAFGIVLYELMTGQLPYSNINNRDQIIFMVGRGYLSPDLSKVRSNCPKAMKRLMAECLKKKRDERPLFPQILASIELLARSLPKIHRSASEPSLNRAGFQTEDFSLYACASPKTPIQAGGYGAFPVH
Consider `Cc1ccc2c(Nc3cccc(Cl)c3F)nccc2c1NC(=O)c1cccc2c(N)ncnc12` [Compound 1, 4-amino-N-(1-((3-chloro-2-fluorophenyl)amino)-6-methylisoquinolin-5-yl)quinazoline-8-carboxamide], for which inhibition was half-maximal at 4.71 ± 2.62 nM (IC50).
Still for that read-out and setting: to `Cc1ccc2c(Cc3cccc(C(F)(F)F)c3)nccc2c1NC(=O)c1csc2c(N)ncnc12` [Compound 19, 4-amino-N-(6-methyl-1-(3-(trifluoromethyl)benzyl)isoquinolin-5-yl)thieno[3,2-d]pyrimidine-7-carboxamide] belongs 13.9 ± 3.24 nM.
On the same count and under the same terms, to `Cc1ccc2c(C(=O)c3cccc(C(F)(F)F)c3)nccc2c1NC(=O)c1csc2c(N)ncnc12` [Compound 22, 4-amino-N-(6-methyl-1-(3-(trifluoromethyl)benzoyl)isoquinolin-5-yl)thieno[3,2-d]pyrimidine-7-carboxamide] belongs 26.8 ± 6.82 nM; to `Cc1ccc2c(Nc3ccc(CN(C)C)c(C(F)(F)F)c3)nccc2c1NC(=O)c1cnc2c(N)ncnn12` [Compound 62, 4-amino-N-(1-((4-((dimethylamino)methyl)-3-(trifluoromethyl)phenyl)amino)-6-methylisoquinolin-5-yl)imidazo[2,1-f][1,2,4]triazine-7-carboxamide], 19.7 ± 4.67 nM.
Still for that read-out and setting: the value for `CC(=O)c1ccc(Nc2nccc3c(NC(=O)c4cccc5c(N)ncnc45)c(C)ccc23)cc1` [Compound 63, N-(1-((4-acetylphenyl)amino)-6-methylisoquinolin-5-yl)-4-aminoquinazoline-8-carboxamide] was 5.39 ± 0.8 nM; that for `Cc1ccc2c(Nc3ccc(Cl)c(CN(C)C)c3)nccc2c1NC(=O)c1cccc2c(N)ncnc12` [Compound 64, 4-amino-N-(1-((4-chloro-3-((dimethylamino)methyl)phenyl)amino)-6-methylisoquinolin-5-yl)quinazoline-8-carboxamide] was 13 ± 3.58 nM; that for `Cc1ccc(Nc2nccc3c(NC(=O)c4cccc5c(N)ncnc45)c(C)ccc23)cc1` [Compound 65, 4-amino-N-(6-methyl-1-(p-tolylamino)isoquinolin-5-yl)quinazoline-8-carboxamide] was 4.8 ± 0.78 nM.
Consider `Cc1ccc2c(Nc3cccc(Cl)c3F)nccc2c1NC(=O)c1nccc2c(N)ncnc12` [Compound 66, 4-amino-N-(1-((3-chloro-2-fluorophenyl)amino)-6-methylisoquinolin-5-yl)pyrido[3,4-d]pyrimidine-8-carboxamide], for which 2.57 ± 0.32 nM corresponded to half-maximal inhibition (IC50). Against the preceding compound, the IC50 is about 1.9-fold lower.
`COc1ccc(Nc2nccc3c(NC(=O)c4cccc5c(N)ncnc45)c(C)ccc23)cc1OC` [Compound 68, 4-amino-N-(1-((3,4-dimethoxyphenyl)amino)-6-methylisoquinolin-5-yl)quinazoline-8-carboxamide] yielded an IC50 of 15 ± 2.65 nM.
On the same count and under the same terms, the value for `Cc1ccc2c(Nc3cccc(Cl)c3F)nccc2c1NC(=O)c1cncc2c(N)ncnc12` [Compound 69, 4-amino-N-(1-((3-chloro-2-fluorophenyl)amino)-6-methylisoquinolin-5-yl)pyrido[4,3-d]pyrimidine-8-carboxamide] was 4.3 ± 1.14 nM.
The same measure, in the same setting: to `Cc1ccc2c(Nc3ccc(Cl)c(F)c3F)nccc2c1NC(=O)c1cnc2c(N)ncnn12` [Compound 70, 4-amino-N-(1-((4-chloro-2,3-difluorophenyl)amino)-6-methylisoquinolin-5-yl)imidazo[2,1-f][1,2,4]triazine-7-carboxamide] belongs 10.5 ± 1.72 nM; to `Cc1ccc2c(Nc3ccnc(C(F)(F)F)c3)nccc2c1NC(=O)c1cccc2c(N)ncnc12` [Compound 71, 4-amino-N-(6-methyl-1-((2-(trifluoromethyl)pyridin-4-yl)amino)isoquinolin-5-yl)quinazoline-8-carboxamide], 23 ± 1.76 nM.
On the same count and under the same terms, to `Cc1ccc2c(Nc3cc(F)ccc3F)nccc2c1NC(=O)c1cccc2c(N)ncnc12` [Compound 72, 4-amino-N-(1-((2,5-difluorophenyl)amino)-6-methylisoquinolin-5-yl)quinazoline-8-carboxamide] belongs 6.9 ± 1.3 nM; to `CCOc1ccc(Nc2nccc3c(NC(=O)c4cccc5c(N)ncnc45)c(C)ccc23)c(F)c1` [Compound 74, 4-amino-N-(1-((4-ethoxy-2-fluorophenyl)amino)-6-methylisoquinolin-5-yl)quinazoline-8-carboxamide], 13.8 ± 0.9 nM.
The compound `COc1ccc(Nc2nccc3c(NC(=O)c4cccc5c(N)ncnc45)c(C)ccc23)cn1` [Compound 75, 4-amino-N-(1-((6-methoxypyridin-3-yl)amino)-6-methylisoquinolin-5-yl)quinazoline-8-carboxamide] yielded an IC50 of 5.58 ± 0.77 nM.
In the case of `Cc1ccc2c(Nc3cccc(Cl)c3F)nccc2c1NC(=O)c1cc(O)cc2c(N)ncnc12` [Compound 76, 4-amino-N-(1-((3-chloro-2-fluorophenyl)amino)-6-methylisoquinolin-5-yl)-6-hydroxyquinazoline-8-carboxamide], the IC50 is 29.3 ± 3.32 nM. This IC50 lies about 5.3-fold higher than the previous one.
Compound `Cc1ccc2c(Nc3ccc4c(c3)OCCO4)nccc2c1NC(=O)c1cccc2c(N)ncnc12` [Compound 77, 4-amino-N-(1-((2,3-dihydrobenzo[b][1,4]dioxin-6-yl)amino)-6-methylisoquinolin-5-yl)quinazoline-8-carboxamide] displayed an IC50 of 7.9 ± 0.73 nM. Compared with the last compound, the IC50 is about 3.7-fold lower.
Same read-out and setting: the value for `Cc1ccc2c(Nc3ccc(C#N)cc3F)nccc2c1NC(=O)c1cccc2c(N)ncnc12` [Compound 78, 4-amino-N-(1-((4-cyano-2-fluorophenyl)amino)-6-methylisoquinolin-5-yl)quinazoline-8-carboxamide] was 12.4 ± 0.94 nM; that for `Cc1ccc2c(Nc3cccc(Cl)c3F)nccc2c1NC(=O)c1cc(OCCN2CCOCC2)cc2c(N)ncnc12` [Compound 79, 4-amino-N-(1-((3-chloro-2-fluorophenyl)amino)-6-methylisoquinolin-5-yl)-6-(2-morpholinoethoxy)quinazoline-8-carboxamide] was 14.7 ± 1.66 nM.
The same measure, in the same setting: the value for `Cc1ccc2c(Nc3cc(C#N)ccc3F)nccc2c1NC(=O)c1cccc2c(N)ncnc12` [Compound 80, 4-amino-N-(1-((5-cyano-2-fluorophenyl)amino)-6-methylisoquinolin-5-yl)quinazoline-8-carboxamide] was 13.5 ± 12.1 nM; that for `Cc1ccc2c(Nc3cccc(Cl)c3F)nccc2c1NC(=O)c1ccnc2c(N)ncnc12` [Compound 81, 4-amino-N-(1-((3-chloro-2-fluorophenyl)amino)-6-methylisoquinolin-5-yl)pyrido[3,2-d]pyrimidine-8-carboxamide] was 22 ± 3.69 nM.
Compound `Cc1ccc2c(Nc3ccc4c(c3)CN(C)CC4)nccc2c1NC(=O)c1cccc2c(N)ncnc12` [Compound 82, 4-amino-N-(6-methyl-1-((2-methyl-1,2,3,4-tetrahydroisoquinolin-7-yl)amino)isoquinolin-5-yl)quinazoline-8-carboxamide] registered an IC50 of 13.2 ± 1.69 nM.
Still for that read-out and setting: the value for `Cc1ccc2c(Nc3cccc(C#N)c3F)nccc2c1NC(=O)c1cccc2c(N)ncnc12` [Compound 83, 4-amino-N-(1-((3-cyano-2-fluorophenyl)amino)-6-methylisoquinolin-5-yl)quinazoline-8-carboxamide] was 15.1 ± 1.62 nM; that for `Cc1ccc2c(Nc3cc(Cl)ccc3F)nccc2c1NC(=O)c1cc(F)cc2c(N)ncnc12` [Compound 84, 4-amino-N-(1-((5-chloro-2-fluorophenyl)amino)-6-methylisoquinolin-5-yl)-6-fluoroquinazoline-8-carboxamide] was 23.8 ± 4.41 nM.
The same measure, in the same setting: the value for `Cc1ccc2c(Nc3cccc(Cl)c3F)nccc2c1NC(=O)c1cc(OCCO)cc2c(N)ncnc12` [Compound 86, 4-amino-N-(1-((3-chloro-2-fluorophenyl)amino)-6-methylisoquinolin-5-yl)-6-(2-hydroxyethoxy)quinazoline-8-carboxamide] was 11.9 ± 1.3 nM; that for `COc1ccc(F)c(Nc2nccc3c(NC(=O)c4cccc5c(N)ncnc45)c(C)ccc23)c1` [Compound 87, 4-amino-N-(1-((2-fluoro-5-methoxyphenyl)amino)-6-methylisoquinolin-5-yl)quinazoline-8-carboxamide] was 4.64 ± 0.7 nM.
On the same count and under the same terms, the value for `Cc1ccc(Nc2nccc3c(NC(=O)c4cccc5c(N)ncnc45)c(C)ccc23)c(F)c1` [Compound 88, 4-amino-N-(1-((2-fluoro-4-methylphenyl)amino)-6-methylisoquinolin-5-yl)quinazoline-8-carboxamide] was 11.7 ± 0.99 nM.
On to `Cc1ccc2c(Nc3cc(Br)ccc3F)nccc2c1NC(=O)c1cccc2c(N)ncnc12` [Compound 91, 4-amino-N-(1-((5-bromo-2-fluorophenyl)amino)-6-methylisoquinolin-5-yl)quinazoline-8-carboxamide], for which the IC50 amounted to 20.9 ± 2.81 nM.
Still for that read-out and setting: to `Cc1ccc2c(Nc3c(F)c(F)cc(F)c3F)nccc2c1NC(=O)c1cccc2c(N)ncnc12` [Compound 95, 4-amino-N-(6-methyl-1-((2,3,5,6-tetrafluorophenyl)amino)isoquinolin-5-yl)quinazoline-8-carboxamide] belongs 13.9 ± 1.48 nM; to `Cc1ccc2c(Nc3cccc(OCCN4CCOCC4)c3F)nccc2c1NC(=O)c1cccc2c(N)ncnc12` [Compound 98, 4-amino-N-(1-((2-fluoro-3-(2-morpholinoethoxy)phenyl)amino)-6-methylisoquinolin-5-yl)quinazoline-8-carboxamide], 21.9 ± 6.38 nM; to `Cc1ccc2c(Nc3cccc(Cl)c3F)nccc2c1NC(=O)c1cn(C)c2c(N)ncnc12` [Compound 101, 4-amino-N-(1-((3-chloro-2-fluorophenyl)amino)-6-methylisoquinolin-5-yl)-5-methyl-5H-pyrrolo[3,2-d]pyrimidine-7-carboxamide], 5.58 ± 0.57 nM.
On the same count and under the same terms, to `Cc1ccc2c(Nc3cccc(Cl)c3F)ncnc2c1NC(=O)c1cccc2c(N)ncnc12` [Compound 102, 4-amino-N-(4-((3-chloro-2-fluorophenyl)amino)-7-methylquinazolin-8-yl)quinazoline-8-carboxamide] belongs 12.4 ± 3.05 nM.

In a further experiment the target is mutant CRAF enzyme (RAF1 Y340D and Y341D) (Homo sapiens (Human), UniProt P04049, Y340D/Y341D). Put plainly: RAF inhibition assay (TB-PMAP2K1 kit), mutant CRAF. Conditions: FLUORESCEIN-MAP2K1 substrate, 60 min reaction. In kind it is biochemical.
mutant CRAF enzyme (RAF1 Y340D and Y341D), sequence (P04049 whole entry Y340D/Y341D): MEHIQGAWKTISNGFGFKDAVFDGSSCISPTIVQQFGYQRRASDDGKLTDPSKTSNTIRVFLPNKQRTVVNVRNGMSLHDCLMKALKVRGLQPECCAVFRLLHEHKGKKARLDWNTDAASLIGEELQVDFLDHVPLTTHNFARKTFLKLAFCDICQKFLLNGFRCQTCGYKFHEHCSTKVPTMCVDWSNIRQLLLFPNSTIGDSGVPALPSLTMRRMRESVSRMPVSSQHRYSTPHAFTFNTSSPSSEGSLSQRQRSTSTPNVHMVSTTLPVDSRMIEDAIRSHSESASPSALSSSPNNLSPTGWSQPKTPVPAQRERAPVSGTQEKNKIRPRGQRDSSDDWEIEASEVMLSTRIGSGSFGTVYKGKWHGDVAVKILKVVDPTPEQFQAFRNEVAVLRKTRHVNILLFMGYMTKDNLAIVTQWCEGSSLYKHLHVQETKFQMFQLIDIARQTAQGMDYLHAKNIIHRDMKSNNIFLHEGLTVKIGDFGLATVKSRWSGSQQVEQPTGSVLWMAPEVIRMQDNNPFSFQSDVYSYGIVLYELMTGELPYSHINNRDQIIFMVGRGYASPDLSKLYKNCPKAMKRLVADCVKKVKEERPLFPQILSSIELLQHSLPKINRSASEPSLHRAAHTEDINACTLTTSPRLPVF
Compound `Cc1ccc2c(Nc3cccc(Cl)c3F)nccc2c1NC(=O)c1cccc2c(N)ncnc12` [Compound 1, 4-amino-N-(1-((3-chloro-2-fluorophenyl)amino)-6-methylisoquinolin-5-yl)quinazoline-8-carboxamide] returned an IC50 of 5.4 ± 0.6 nM.
The same measure, in the same setting: the value for `Cc1ccc2c(Cc3cccc(C(F)(F)F)c3)nccc2c1NC(=O)c1csc2c(N)ncnc12` [Compound 19, 4-amino-N-(6-methyl-1-(3-(trifluoromethyl)benzyl)isoquinolin-5-yl)thieno[3,2-d]pyrimidine-7-carboxamide] was 10.3 ± 2.29 nM; that for `Cc1ccc2c(C(=O)c3cccc(C(F)(F)F)c3)nccc2c1NC(=O)c1csc2c(N)ncnc12` [Compound 22, 4-amino-N-(6-methyl-1-(3-(trifluoromethyl)benzoyl)isoquinolin-5-yl)thieno[3,2-d]pyrimidine-7-carboxamide] was 14.5 ± 9.94 nM.

One may read the IC50 as the concentration that gives 50% inhibition. High values mean a need for much substance, low ones inhibition by little substance.

The values are drawn from patent US20230312556A1, “ARYLAMIDE COMPOUND, PHARMACEUTICAL COMPOSITION COMPRISING SAME, AND PREPARATION METHOD THEREFOR AND USE THEREOF” (SICHUAN KELUN-BIOTECH BIOPHARMACEUTICAL CO., LTD., priority 2020, published 2023).
